Measured values as given in patent publication US8227625B2, “4,5,6,7-tetrahydrobenzo[b]thiophene derivatives and their use as sigma receptor ligands” (Laboratorios del Dr. Esteve, S.A., priority 2006, dated 2012).

Columns and labels:
[1] = biological target: T1, Sigma-1 receptor (Cavia porcellus, UniProt Q60492); assay: Sigma-1 receptor radioligand binding assay, [3H](+)-pentazocine, guinea pig brain membranes; conditions: [3H](+)-pentazocine 0.5 nM; for % Binding σ1 10^−7M: compound at 10^−7M; for % Binding σ1 10^−8M: compound at 10^−8M
T1 construct: from tissue; host or cells: guinea pig brain membranes
Procedure: Brain membrane preparation and binding assays for the al-receptor were performed as described (DeHaven-Hudkins et al., 1992) with some modifications. In brief, guinea pig brains were homogenized in 10 vols. (w/v) of Tris-HCl 50 mM 0.32 M sucrose, pH 7.4, with a Kinematica Polytron PT 3000 at 15000 r.p.m. for 30 s. The homogenate was centrifuged at 1000 g for 10 min at 4° C. and the supernatants collected and centrifuged again at 48000 g for 15 min at 4° C. The pellet was resuspended in 10 volumes of Tris-HCl buffer (50 mM, pH 7.4), incubated at 37° C. for 30 min, and centrifuged at 48000 g for 20 min at 4° C. Following this, the pellet was resuspended in fresh Tris-HCl buffer (50 mM, pH 7.4) and stored on ice until use.
Each assay tube contained 10 μL of [^3H](+)-pentazocine (final concentration of 0.5 nM), 900 μL of the tissue suspension to a final assay volume of 1 mL and a final tissue concentration of approximately 30 mg tissue net weight/mL. Non-specific binding was defined by addition of a final concentration of 1 μM haloperidol. All tubes were incubated at 37° C. for 150 min before termination of the reaction by rapid filtration over Schleicher & Schuell GF 3362 glass fibre filters [previously soaked in a solution of 0.5% polyethylenimine for at least 1 h]. Filters were then washed with four times with 4 mL of cold Tris-HCl buffer (50 mM, pH 7.4). Following addition of scintillation cocktail, the samples were allowed to equilibrate overnight. The amount of bound radioactivity was determined by liquid scintillation spectrometry using a Wallac Winspectral 1414 liquid scintillation counter. Protein concentrations were determined by the method of Lowry et al. (1951).

T1 sequence (Q60492 whole entry): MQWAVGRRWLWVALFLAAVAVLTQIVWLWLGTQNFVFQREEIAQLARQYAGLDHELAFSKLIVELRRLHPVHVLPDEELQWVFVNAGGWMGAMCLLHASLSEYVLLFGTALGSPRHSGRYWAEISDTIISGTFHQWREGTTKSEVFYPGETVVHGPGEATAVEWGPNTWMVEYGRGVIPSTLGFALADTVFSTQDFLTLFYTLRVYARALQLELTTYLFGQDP

| SMILES | % Binding σ1 10^−7M [1] [%] | % Binding σ1 10^−8M [1] [%] | melting point [°C] |
| --- | --- | --- | --- |
| C(/CN1CCCCC1)=C1/CCCc2sccc21 [Example 9, (E)-1-(2-(6,7-dihydrobenzo[b]thien-4(5H)-ylidene)ethyl)piperidine] | 23 | 5 | – |
| CN(C/C=C1\CCCc2sccc21)Cc1ccccc1 [Example 3, (E)-N-benzyl-2-(6,7-dihydrobenzo[b]thien-4(5H)-ylidene)-N-methylethanamine] | 70.6 | 27.3 | – |
| CN(C/C=C1\CCCc2sccc21)CCc1ccccc1 [Example 7, (E)-N-(2-(6,7-dihydrobenzo[b]thien-4(5H)-ylidene)ethyl)-N-methyl-2-phenylethanamine] | 89.3 | 48.6 | – |
| O=C(O)C(=O)O.O=C1NCCC12CCN(CCC1CCCc3sccc31)CC2 (stereo not shown) [Example 71, 8-[2-(4,5,6,7-Tetrahydrobenzo[b]thiophen-4-yl)-ethyl]-2,8-diazaspiro[4.5]decan-1-one oxalate] | – | – | 147 to 149 |
| Brc1cccc2c1CCN(CCC1CCCc3sccc31)C2.O=C(O)C(=O)O (stereo not shown) [Example 91, 5-bromo-2-(2-(4,5,6,7-tetrahydrobenzo[b]thiophen-4-yl)ethyl)-1,2,3,4-tetrahydroisoquinoline oxalate] | – | – | 167 to 168 |

Results, then the molecule that gave them:

| % Binding σ1 10^−7M [1] [%] | % Binding σ1 10^−8M [1] [%] | melting point [°C] | SMILES |
| --- | --- | --- | --- |
| 84.5 | 32.8 | – | C(/CN1CCC(c2ccccc2)CC1)=C1/CCCc2sccc21 [Example 5, (E)-1-(2-(6,7-dihydrobenzo[b]thien-4(5H)-ylidene)ethyl)-4-phenylpiperidine] |
| 70.9 | 18.2 | – | CC1CCN(C/C=C2\CCCc3sccc32)CC1 [Example 11, (E)-1-(2-(6,7-dihydrobenzo[b]thien-4(5H)-ylidene)ethyl)-4-methylpiperidine] |
| – | – | 190 to 192 | O=C(O)C(=O)O.c1ccc2c(C3CCN(CCC4CCCc5sccc54)CC3)csc2c1 (stereo not shown) [Example 57, 4-(benzo[b]thiophen-3-yl)-1-(2-(4,5,6,7-tetrahydrobenzo[b]thiophen-4-yl)ethyl)piperidine oxalate] |
| – | – | 201 to 202 | Clc1ccc(C2CCN(CCC3CCCc4sccc43)CC2)cc1.O=C(O)C(=O)O (stereo not shown) [Example 34, 4-(4-chlorophenyl)-1-(2-(4,5,6,7-tetrahydrobenzo[b]thiophen-4-yl)ethyl)piperidine oxalate] |
| – | – | 200 to 201 | O=C(O)C(=O)O.O=C1N(c2ccccc2)CCC12CCN(CCC1CCCc3sccc31)CC2 (stereo not shown) [Example 87, 2-phenyl-8-[2-(4,5,6,7-tetrahydrobenzo[b]thiophen-4-yl)-ethyl]-2,8-diazaspiro[4.5]decan-1-one oxalate] |
| – | – | 160 to 163 | C(/CN1CCC(c2ccccc2)CC1)=C1/CCCc2sccc21.O=C(O)C(=O)O [Example 6, (E)-1-(2-(6,7-dihydrobenzo[b]thien-4(5H)-ylidene)ethyl)-4-phenylpiperidine oxalate] |
